The source of these data is patent US10301295B2, “Herbicidal compounds” (Syngenta Participations AG, priority 2014, dated 2019).

Where two headings read alike, the source gives them in different places.

Holding throughout (type): in vivo
The test system of test [1] is Lolium perenne (LOLPE). Kind of test: Glasshouse assay for herbicidal activity, pre-/post-emergence (percentage phytotoxicity). Particulars: Lolium perenne, Rate 250 g/ha, 100%=total damage, 0%=no damage. An outline of the steps: (§1)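 Seeds sown in standard soil in pots, grown 1 day (pre-emergence) or ~12 days (post-emergence) before treatment. Glasshouse: warm species 24/18 °C, cool species 20/16 °C day/night, 16 h light, 65% humidity, watered twice daily. Visual phytotoxicity scored 15DAA (post) or 20DAA (pre); 0% none, 100% total damage.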

Test [2] concerns Avena fatua (AVEFA). Described as above. The note with it: Avena fatua, Rate 250 g/ha, 100%=total damage, 0%=no damage. An outline of the steps: as §1
Test [3] has as its system Alopecurus myosuroides (ALOMY). The description is as above. Particulars: Alopecurus myosuroides, Rate 250 g/ha, 100%=total damage, 0%=no damage. An outline of the steps:
as §1

Test [4] has as its system Echinochloa crus-galli (ECHCG). The description is as above. The note with it: Echinochloa crus-galli, Rate 250 g/ha, 100%=total damage, 0%=no damage. An outline of the steps: as §1
Test [5] relates to wheat. Kind of test: Post-emergence herbicidal activity against cereal crops (wheat) +/- safener, crop selectivity. Particulars: 100%=total damage to plant, 0%=no damage; for Post-emergence herbicidal activity against wheat (percentage phytotoxicity), +CQC: 250 g/ha, plus safener cloquintocet-mexyl (CQC) applied at 50 g/ha; for percent phytotoxicity (crop damage) to wheat at 250 g/ha: Triticum aestivum, 360 h, without safener, read-out: Post-emergence herbicidal activity against wheat (percentage phytotoxicity), Wheat - CQC. An outline of the steps: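 Test plants raised in pots in a glasshouse (24/18 °C warm or 20/16 °C cool species day/night, 16 h light, 65% humidity) and treated post-emergence about 12 days after sowing. Visual percentage phytotoxicity scored 15 days after application (0% = no damage, 100% = total damage).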

The mark [6] stands for this setting: post-emergence, 360 h, post-emergence, visual assessment 15 DAA, read-out: Post-emergence herbicidal activity (percentage phytotoxicity), LOLPE POST.
Where [7] appears, read: pre-emergence, 480 h, pre-emergence, visual assessment 20 DAA, read-out: Pre-emergence herbicidal activity (percentage phytotoxicity), LOLPE PRE.
Setting [8] is: post-emergence, 360 h, post-emergence, visual assessment 15 DAA, read-out: Post-emergence herbicidal activity (percentage phytotoxicity), AVEFA POST.
Where [9] appears, read: pre-emergence, 480 h, pre-emergence, visual assessment 20 DAA, read-out: Pre-emergence herbicidal activity (percentage phytotoxicity), AVEFA PRE.
[10] abbreviates: 360 h, post-emergence, visual assessment 15 DAA, read-out: Post-emergence herbicidal activity (percentage phytotoxicity), ALOMY POST.
Where [11] appears, read: 480 h, pre-emergence, visual assessment 20 DAA, read-out: Pre-emergence herbicidal activity (percentage phytotoxicity), ALOMY PRE.
Where [12] appears, read: post-emergence, 360 h, post-emergence, visual assessment 15 DAA, read-out: Post-emergence herbicidal activity (percentage phytotoxicity), ECHCG POST.
Where [13] appears, read: pre-emergence, 480 h, pre-emergence, visual assessment 20 DAA, read-out: Pre-emergence herbicidal activity (percentage phytotoxicity), ECHCG PRE.

For `Cc1cc(C)c(C2C(=O)CC(CCNC(=O)NC(=O)c3ccc(C(F)(F)F)cc3)C2=O)c(C)c1` (stereo not drawn) [Compound A72], the pest or weed control at 250 g/ha in test [1] (setting [6]) worked out at 80%; in test [1] (setting [7]) it was 10%; in test [2] (setting [8]) it was 90%; in test [2] (setting [9]) it was 20%; in test [3] (setting [10]), 30%; in test [3] (setting [11]), 20%. Also, the values for the pest or weed control at 250 g/ha in test [4] (setting [12]) and in test [4] (setting [13]) were 80% and 0%, respectively. In addition, the “Post-emergence herbicidal activity against wheat (percentage phytotoxicity), +CQC” value in test [5] turned out to be 70%. Besides, in test [5], the percent phytotoxicity (crop damage) to wheat at 250 g/ha came out at 80%.
As for `Cc1cc(C)c(C2C(=O)CC(CCNC(=O)NC(=O)c3ccc(Cl)c(Cl)c3)C2=O)c(C)c1` (stereo not drawn) [Compound A68], the pest or weed control at 250 g/ha is 80% in test [1] (setting [6]); 30% in test [1] (setting [7]); 0% in test [2] (setting [8]); 10% in test [2] (setting [9]); 50% in test [3] (setting [10]); 0% in test [3] (setting [11]). Further, the pest or weed control at 250 g/ha in test [4] (setting [12]) amounted to 70%; in test [4] (setting [13]), 10%. Also, the “Post-emergence herbicidal activity against wheat (percentage phytotoxicity), +CQC” value in test [5] was 0%. Moreover, in test [5], the percent phytotoxicity (crop damage) to wheat at 250 g/ha stood at 90%.
Take `Cc1cc(C)c(C2C(=O)CC(CCNC(=O)Nc3ccc(Br)cn3)C2=O)c(C)c1.Cl` (stereo not drawn) [Compound A4]: the pest or weed control at 250 g/ha was 100% in test [1] (setting [6]); 80% in test [1] (setting [7]); 100% in test [2] (setting [8]); 70% in test [2] (setting [9]); 90% in test [3] (setting [10]); 80% in test [3] (setting [11]). Also, the pest or weed control at 250 g/ha in test [4] (setting [12]) turned out to be 90%; in test [4] (setting [13]) it was 60%. Also, the “Post-emergence herbicidal activity against wheat (percentage phytotoxicity), +CQC” value in test [5] was determined as 50%. Moreover, the percent phytotoxicity (crop damage) to wheat at 250 g/ha in test [5] was determined as 90%.
With `CC(=NOCc1ccccc1)C(=O)NCCC1CC(=O)C(c2c(C)cc(C)cc2C)C1=O` (stereo not drawn) [Compound A44], the pest or weed control at 250 g/ha in test [1] (setting [6]) turned out to be 0%; in test [1] (setting [7]), 10%; in test [2] (setting [8]) it was 0%; in test [2] (setting [9]), 0%; in test [3] (setting [10]), 0%; in test [3] (setting [11]) it was 0%. Also, the pest or weed control at 250 g/ha in test [4] (setting [12]) was 70%; in test [4] (setting [13]), 0%. Besides, the “Post-emergence herbicidal activity against wheat (percentage phytotoxicity), +CQC” value in test [5] worked out at 10%. The percent phytotoxicity (crop damage) to wheat at 250 g/ha in test [5] came to 30%.
With `Cc1cc(C)c(C2C(=O)CC(CCNC(=O)NC(=O)c3ccc(C(F)(F)F)cc3F)C2=O)c(C)c1` (stereo not drawn) [Compound A70], the pest or weed control at 250 g/ha stood at 100% in test [1] (setting [6]); 60% in test [1] (setting [7]); 90% in test [2] (setting [8]); 40% in test [2] (setting [9]); 20% in test [3] (setting [10]); 50% in test [3] (setting [11]). Further, the pest or weed control at 250 g/ha in test [4] (setting [12]) came to 90%; in test [4] (setting [13]), 100%. Also, the “Post-emergence herbicidal activity against wheat (percentage phytotoxicity), +CQC” value in test [5] is listed as 80%. For the same compound, the percent phytotoxicity (crop damage) to wheat at 250 g/ha in test [5] worked out at 80%.
Consider `CCS(=O)(=O)NCCC1CC(=O)C(c2c(C)cc(C)cc2C)C1=O` (stereo not drawn) [Compound A83], for which the pest or weed control at 250 g/ha in test [1] (setting [6]) came out at 70%; in test [1] (setting [7]) it was 90%; in test [2] (setting [8]), 80%; in test [2] (setting [9]), 80%; in test [3] (setting [10]), 80%; in test [3] (setting [11]) it was 90%. The pest or weed control at 250 g/ha in test [4] (setting [12]) and in test [4] (setting [13]) was 70% in each case. Also, the “Post-emergence herbicidal activity against wheat (percentage phytotoxicity), +CQC” value in test [5] came to 10%. Further, the percent phytotoxicity (crop damage) to wheat at 250 g/ha in test [5] was found to be 80%.
With `Cc1cc(C)c(C2C(=O)CC(CCNC(=O)NC(=O)c3cccc(C(F)(F)F)c3)C2=O)c(C)c1` (stereo not drawn) [Compound A66], the pest or weed control at 250 g/ha in test [1] (setting [6]) is 80%; in test [1] (setting [7]), 40%; in test [2] (setting [8]), 30%; in test [2] (setting [9]), 0%; in test [3] (setting [10]), 70%; in test [3] (setting [11]) it was 20%. Besides, the pest or weed control at 250 g/ha in test [4] (setting [12]) was 60%; in test [4] (setting [13]) it was 10%. The “Post-emergence herbicidal activity against wheat (percentage phytotoxicity), +CQC” value in test [5] was found to be 40%. In addition, the percent phytotoxicity (crop damage) to wheat at 250 g/ha in test [5] was found to be 80%.
Consider `CC(=NOCc1ccccc1)C(=O)NCCC1CC(=O)C(c2c(C)cc(-n3cc(Cl)cn3)cc2C)C1=O` (stereo not drawn) [Compound A41], for which the pest or weed control at 250 g/ha came to 40% in test [1] (setting [6]); 0% in test [1] (setting [7]); 20% in test [2] (setting [8]); 0% in test [2] (setting [9]); 60% in test [3] (setting [10]); 0% in test [3] (setting [11]). Besides, the pest or weed control at 250 g/ha in test [4] (setting [12]) turned out to be 60%; in test [4] (setting [13]), 0%. Further, in test [5], the “Post-emergence herbicidal activity against wheat (percentage phytotoxicity), +CQC” value was 20%. The percent phytotoxicity (crop damage) to wheat at 250 g/ha in test [5] turned out to be 60%.
Regarding `CON=C(C)C(=O)NCCC1CC(=O)C(c2c(C)cc(-n3cc(Cl)cn3)cc2C)C1=O` (stereo not drawn) [Compound A38], the pest or weed control at 250 g/ha in test [1] (setting [6]) turned out to be 80%; in test [1] (setting [7]), 70%; in test [2] (setting [8]), 80%; in test [2] (setting [9]) it was 70%; in test [3] (setting [10]) it was 70%; in test [3] (setting [11]), 70%. Also, the pest or weed control at 250 g/ha in test [4] (setting [12]) and in test [4] (setting [13]) was 100% throughout. Moreover, the “Post-emergence herbicidal activity against wheat (percentage phytotoxicity), +CQC” value in test [5] is 30%. In addition, the percent phytotoxicity (crop damage) to wheat at 250 g/ha in test [5] is 70%.
In the case of `CC#Cc1cc(C)c(C2C(=O)CC(CCNC(=O)N(C)c3ccccn3)C2=O)c(C)c1.Cl` (stereo not drawn) [Compound A22], the pest or weed control at 250 g/ha stood at 90% in test [1] (setting [6]); 100% in test [1] (setting [7]); 100% in test [2] (setting [8]); 100% in test [2] (setting [9]); 80% in test [3] (setting [10]); 70% in test [3] (setting [11]). The pest or weed control at 250 g/ha in test [4] (setting [12]) and in test [4] (setting [13]) was 100% throughout. For the same compound, the “Post-emergence herbicidal activity against wheat (percentage phytotoxicity), +CQC” value in test [5] amounted to 30%. In addition, in test [5], the percent phytotoxicity (crop damage) to wheat at 250 g/ha stood at 80%.
Consider `Cc1cc(C)c(C2C(=O)CC(CCNC(=O)NC(=O)c3c(Cl)cccc3Cl)C2=O)c(C)c1` (stereo not drawn) [Compound A52], for which the pest or weed control at 250 g/ha in test [1] (setting [6]) was 90%; in test [1] (setting [7]), 80%; in test [2] (setting [8]), 80%; in test [2] (setting [9]) it was 70%; in test [3] (setting [10]), 90%; in test [3] (setting [11]), 80%. For the same compound, the pest or weed control at 250 g/ha in test [4] (setting [12]) is 90%; in test [4] (setting [13]) it was 100%. Also, the “Post-emergence herbicidal activity against wheat (percentage phytotoxicity), +CQC” value in test [5] was 30%. Further, the percent phytotoxicity (crop damage) to wheat at 250 g/ha in test [5] is 80%.
With `Cc1cc(C)c(C2C(=O)CC(CCNC(=O)NC(=O)c3ccccc3Cl)C2=O)c(C)c1` (stereo not drawn) [Compound A49], the pest or weed control at 250 g/ha turned out to be 100% in test [1] (setting [6]); 90% in test [1] (setting [7]); 100% in test [2] (setting [8]); 80% in test [2] (setting [9]); 100% in test [3] (setting [10]); 90% in test [3] (setting [11]). The pest or weed control at 250 g/ha in test [4] (setting [12]) and in test [4] (setting [13]) was 100% throughout. Moreover, the “Post-emergence herbicidal activity against wheat (percentage phytotoxicity), +CQC” value in test [5] was 90%. The percent phytotoxicity (crop damage) to wheat at 250 g/ha in test [5] is 90%.
